Test results taken from patent publication US20020086027A1, “Composition and method for enhancing immunological memory response” (priority 1998, published 2002).

How the values were obtained:
human T cells [1] = experiment: Primary alloproliferative response of responder PBMCs to irradiated MHC-mismatched stimulator PBMCs ([3H]thymidine incorporation); format: cell-based
Experimental: In this system, we have used responses to first exposure as an indication of primary responses. When cells stimulated in this fashion are rested in culture and then restimulated with the same stimulator PBMCs, the 'recall' response measured are taken as an indication of immune memory. Proliferation is measured by the incorporation of radioactive tritiated thymidine in dividing cells. PBMCs from HLA-mismatched individuals were separated using density-gradient centrifugation on Ficoll-Paque (Pharmacia, Uppsala, Sweden). Stimulator PBMCs were used in titrated doses after g-irradiation (200 rads). For the primary proliferative alloresponses, stimulator in graded doses were used with 1-3×10^5 responders per well in 200 μl of RPMI-1640 (Life Technologies, Grand Island, N.Y.) fortified with L-glutamine (Life Technologies) and antibiotics, containing 10% heat-inactivated responder autologous serum. Cultures were incubated in a CO2 atmosphere for five days, pulsed with 0.5 uCi of (H^3)-thymidine (New England Nuclear, Boston, Mass.) for the last 8-12 hours of the assay and harvested onto glass fiber filters for counting cell-incorporated thymidine (Betaplate; Wallac, Finland). results are expressed as mean cpm±SE for triplicate cultures. Dibutyryl cyclic AMP (dbcAMP), pentoxifylline (POX), aphidicolin (all from Sigma Chemical Co., St Louis, Mo.) and recombinant IL-2 (Boehringer Manheim Corp., Manheim Germany) were added singly or together to the culture in various doses as indicated during priming and in primary alloresponse assays. […] Sigma Chemical Co.) at room temperature for 20 minutes, washed extensively and used. PBMCs from MHC-mismatched donors were used as responder-stimulator pairs. Stimulator cells were used after γ-irradiation (200 rad) at various concentrations, as shown. Proliferation assays were set up as parallel cultures and were pulsed and harvested as below on different days when necessary for the analyses of the kinetics of the response. Where appropriate, cyclosporin A (CsA, Sandoz, Milan, Italy), aphidicolin (Aph, Sigma Chemical Co., and/or pentoxifylline ([…], Sigma Chemical Co.) Were added at the concentrations indicated, or PFA-fixed PBMCs were used. The plated were pulsed with 0.5 to 1 μCi of (^3H)thymidine ([^3H]TdR. Amersham, Little Chalfont, U.K.) During the last 12 to 16 h of the assay (4 days for a recall assay and 6 days for a primary assay, unless indicated otherwise). [^3H] TdR incorporation was measured by harvesting the cultures on glass-fibers and counting in a scintillation counter (Betaplate: LKB-Pharmacia. Uppsala, […]). The results are expressed as mean cpm±SE of triplicate cultures.

CD25+ CD4 T cells = experiment: Flow cytometry of CD25 and Fas (CD95) on primed cells; format: cell-based, human
Experimental: For analysis of cell surface markers, primed cell populations separated on Ficoll-Paque gradients were used. […] Briefly, 1-3×10^5 cells per well were stained with primary antibodies at 4° C., followed by appropriately labeled secondary reagents if required. Samples were analyzed using a Bryte flow cytometer (bio-Rad, Hemel Hampstead, UK). Antibodies to the T cell markers CD3 (OKT3), CD4 (OKT4), and to the activation markers CD25 and Fas (CD95) were used for staining. To detect apoptosis using propidium iodide (PI, Sigma Chemical Co.), antibody-stained cells were fixed and permeabilized with 70% ethanol, washed, and PI […] added just before cytometric analysis. Data were analyzed using FlowJo software (Treestar, San Jose, Calif.).
The phenotype of CD4 T cells activated during priming in vitro was examined next using various markers associated with T cell activation. Antibodies against CD25 (IL-2Ra), CD26, CD45RO, CD69 and gp240 were used, but except for CD25, none of the other markers gave consistent and reliable results (data not shown). CD25 expression on CD4 T cells in the responder populations was examined in a two-color flow cytometric analysis at two separate time points,—at the end of six days of priming and after two further rest days in culture after washing and resuspension in resh medium without any stimuli. Most CD25-expressing cells in the primed cultures were CD4 T cells. […] The frequency of CD25 expression increased in the PBMC-primed responders (FIG. 17B) and this percentage was lower if POX (100 μg/ml) was present during priming (FIG. 17C). […] Similar data were observed if dbcAMP was present during priming (data not shown). It can be seen that the proportion of CD25* cells was reproducibly lower if POX was present during priming with allo-PBMCs. However, after 48 hours of rest in culture, the frequency of CD25* cells declined in the populations primed in the absence of POX, while it went up in the group primed under POX cover.

[2] = system: antigen-specific T cell memory; experiment: Mice immunized with ovalbumin without adjuvant, splenic T cell recall proliferation; format: in vivo; details: POX 1 mg per mouse per day, day -1 to day 5
Experimental: Splenic cells were stimulated in vitro either on day 7 or on day 60 after immunization with titrated doses of ovalbumin for 4 days and pulsed with 3H-thymidine for 16 h before being harvested for scintillation spectrometry In the second system used to validate the memory-enhancing effects of POX, we have used immunization with a very poor immunogen, egg albumin without adjuvant.

T cell lines = experiment: Intracellular cAMP levels in T cell lines; format: cell-based; details: preliminary experiments
Description: Several effects of POX on T cell signaling pathways have been reported. […] A major consequence of inhibition of phosphodiesterase is an increase in the levels of intracellular cAMP. […] This raises the possibility that although dbcAMP mimics POX in its effects on T cell priming, the precise molecular pathways involved may differ.

human T cells [3] = experiment: Cytokines in culture (IL-2 in supernatants, IFN-γ during recall); format: cell-based
Description: Such possibilities make it plausible that signal-transduction pathways can be identified that differentially affect the commitment of responding T cells to the effector vs the memory pathways. […] It was of interest to look at the role of IL-2 in these events. […] Yet, the recall responses of cells primed under cover of […] are far higher than those of cells primed without […]). In fact, if […] is used in a situation in which T cell proliferation is abrogated by Aph it still enhances the response capability of primed T cells (FIG. 9). […] The enhancement in the magnitude of the secondary response caused by the presence of […] during priming is not simply the result of altered kinetics or response either (FIG. 11), but an actual increase. Clearly […] affects T cell priming such that commitment to memory is enhanced at the cost of effector responses, independent of its on T cell proliferation. […] (data not shown).

human T cells [4] = experiment: Response of primed cells to IL-2 or PHA; format: cell-based; details: for response of primed cells to PHA: primed in presence vs absence of 100 ug/ml drug
Experimental: For priming in vitro, responder PBMCs were incubated for 72 or 144 h at a ratio of either 1:1 or 2:1 respectively, with stimulator PBMCs. Where appropriate, CsA. Aph. and/or Trental were added at the concentrations indicated, of PFA-fixed PBMCs were used instead.

## CC(=O)CCCCn1c(=O)c2c(ncn2C)n(C)c1=O [POX, pentoxifylline]
Human T cells [1]; Trental 100 ug/ml added to cells on 1 μg/ml Aph
  primary proliferative response: further decreases
Human T cells [1]; days 4-10, drugs present throughout
  kinetics of primary response: declines equivalently
Human T cells [1]; drug 100 ug/ml present during primary alloresponse
  primary proliferative response: declines
Human T cells [1]; drug 100 ug/ml present during primary alloresponse, listed as Trental
  primary proliferative response: reduced significantly
Human T cells [1]; drugs removed on day 6, pulsed days 8 and 10
  primary response after drug removal: no increase
Human T cells [1]; increasing doses 1-300 μg/ml, preliminary titrations
  primary proliferative response: decrease
Human T cells [1]; stimulators fixed with 0.05% PF, POX 100 ug/ml
  primary response to PF-fixed PBMCs: not enhanced
CD25+ CD4 T cells; after two further rest days in culture without stimuli
  frequency of CD25 expression: increased frequency
CD25+ CD4 T cells; at end of six days of priming, POX 100 μg/ml
  frequency of CD25 expression: lower
CD25+ CD4 T cells; presence vs absence of POX during priming
  frequency and level of Fas expression in CD25+ population: unchanged
[2]; day 7 post-immunization
  T cell memory recalled: higher
[2]; day 60 post-immunization
  T cell memory recalled: dramatically high
T cell lines
  intracellular cAMP levels: does not increase
Human T cells [3]; Trental 100 μg/ml treated cultures
  IL-2 in culture supernatants: do not find detectable levels
Human T cells [3]; primed in presence vs absence of Trental
  levels of IFN-γ produced during recall: not different
Human T cells [4]; primed in presence vs absence of 100 μg/ml Trental
  response of primed cells to IL-2: to the same extent
Human T cells [4]
  response of primed cells to PHA: does not bring about any enhancement
Human T cells [4]; listed as Trental
  response of primed cells to PHA: comparable
